Like-named read-outs stand apart in the source and are kept apart here.
Key:
HREC [1] = conditions: cited from earlier work
[2] = Enzymatic stability (kinetics of enzymatic hydrolysis) in human plasma; format: in vitro ADME; conditions: human plasma (80%), 37 °C; for half-life at 3.8 µM: pH 7.4, read-out: t1/2, enzymatic stability (converted)
Description: Enzymatic stability studies in rat and human plasma were performed for both the racemate and its enantiomers (Table 1). […] Considering the high stability of (±)-1 and its enantiomers in simulated physiological fluids and human plasma, these compounds could reach the target site without undergoing esterase metabolism.
Human plasma was purchased from 3H Biomedical (Uppsala, Sweden, Europe). Plasma aliquots (4 mL) were diluted with 0.02 M PBS (pH 7.4) to obtain a final volume of 5 mL containing 80% plasma. Studies were performed at 37 ± 0.5 °C using a shaking bath. Each experiment was started by adding a 10^–4 M drug stock solution (200 μL) to the preheated plasma. Hundred microliters of the thermostated medium was taken at various times, treated with cold methanol (500 μL) to precipitate plasma proteins, and centrifugated (5 min at 5000g). The supernatant was analyzed by HPLC to quantify the amount of the residual intact compound.

[3] = system: HREC stimulated with VEGF-A; test: Crystal violet proliferation assay in HREC with or without VEGF-A; format: cell-based, human; conditions: 24 h; for effect of coincubation with PTZ on the compound's anti-VEGF-A activity on HREC proliferation: 5 μM compound + 2 μM PTZ (σ1 agonist); for effect of coincubation with PTZ on the compound's anti-VEGF-A activity on HREC proliferation / effect on VEGF-A-mediated HREC proliferation / effect of coincubation with AC927 on the compound's anti-VEGF-A activity on HREC proliferation: 80 ng/mL VEGF-A; for effect on VEGF-A-mediated HREC proliferation / effect on HREC proliferation under basal conditions: 5 μM; for effect on HREC proliferation under basal conditions: no VEGF-A; for effect of coincubation with AC927 on the compound's anti-VEGF-A activity on HREC proliferation: 5 μM compound + 2 μM AC927 (σ2 antagonist)
Description: As expected, VEGF-A exerted a proangiogenic effect by increasing cell proliferation by about 45% (at 24 h) with respect to the untreated control (Figure 2).
Control cells received an equal volume of vehicle (DMSO). At the end of the treatment, each well was washed with phosphate-buffered saline (PBS). Following this, the cells were fixed (in 4% paraformaldehyde) and stained with crystal violet solution (0.5% in 20% methanol for HREC or 1% aqueous solution for 92-1 cells). Subsequently, the plate was washed with water and left to dry. Crystal violet staining was evaluated by measuring the absorbance at 570 nm or 590 nm, after crystal violet extraction with 10% acetic acid (at room temperature for 10 min), with a microplate reader with the plate reader (Synergy 2-BioTek). For quantification, each assay was carried out in triplicate.

[4] = system: VEGF-A-stimulated human retinal endothelial cells (HRECs); set-up: method as in PMID 27739690; conditions: cited from earlier work
σ1 receptor = target: T1, σ1 receptor (Cavia porcellus, UniProt Q60492); test: σ1 receptor binding assay, [3H]-(+)-pentazocine, guinea pig brain membranes
T1 construct: from tissue; host or cells: guinea pig brain membranes
T1 sequence (Q60492 whole entry): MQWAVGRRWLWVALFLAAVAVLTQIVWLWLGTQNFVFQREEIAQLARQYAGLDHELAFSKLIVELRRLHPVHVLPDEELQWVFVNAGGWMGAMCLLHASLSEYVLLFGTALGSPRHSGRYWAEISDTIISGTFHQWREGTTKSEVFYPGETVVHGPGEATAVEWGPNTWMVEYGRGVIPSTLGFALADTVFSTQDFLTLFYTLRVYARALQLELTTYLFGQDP
Description: (§1) The σ1 and σ2 receptor binding studies were performed according to the literature.[46],[47] Briefly, for the σ1 receptor binding assay, guinea pig brain membranes (400 μL, 500 μg protein) were incubated for 150 min at 37 °C with 3 nM of the radiolabeled ligand [^3H]-(+)-pentazocine (45 Ci/mmol) and increasing concentrations of tested compounds in 50 mM Tris-HCl (pH 7.4) to a total volume of 1 mL. […] Moreover, σ2 receptor binding assays were made according to the following protocol: the guinea pig brain membranes (300 μL, 360 μg protein) were incubated for 120 min at room temperature with 3 nM [^3H]-DTG (31 Ci/mmol) in the presence of 0.4 mM […] (+)-SKF10,047 to block the σ1 sites. The incubation was performed in 50 mM Tris-HCl (pH 8.0) to a total volume of 0.5 mL with increasing concentrations of each test compound. Nonspecific binding was evaluated in the presence of 5 μM DTG.
(§2) Each sample was filtered through Whatman GF/B glass fiber filters, which were presoaked for 1 h in a 0.5% poly(ethylenimine) solution, using a Millipore filter apparatus. Filters were washed twice with 4 mL of ice-cold buffer. Radioactivity was counted in 4 mL of “Ultima Gold MV” in a 1414 WinSpectral PerkinElmer Wallac or Beckman LS6500 scintillation counter. Inhibition constants (Ki values) were calculated using the EBDA/LIGAND program purchased from Elsevier/Biosoft.

σ2 receptor = target: T2, σ2 receptor (Cavia porcellus, UniProt H0V073); test: σ2 receptor binding assay, [3H]-DTG, guinea pig brain membranes
T2 construct: the guinea pig brain membranes (300 μL, 360 μg protein) were incubated for 120 min at room temperature with 3 nM [^3H]-DTG; from tissue; host or cells: guinea pig brain membranes
T2 sequence (H0V073 1-176): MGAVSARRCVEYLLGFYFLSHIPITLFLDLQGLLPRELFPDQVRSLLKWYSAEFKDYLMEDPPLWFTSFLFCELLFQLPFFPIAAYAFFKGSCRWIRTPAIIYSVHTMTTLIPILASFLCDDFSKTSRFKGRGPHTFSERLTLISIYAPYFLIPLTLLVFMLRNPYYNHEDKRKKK
Description: as §1, §2

HREC [5] = test: MTT viability test on HREC; format: cell-based; conditions: Homo sapiens
Description: To dissect enantiomer contributions to antiangiogenic effects by (±)-1, compounds (+)-1 and (−)-1 were evaluated on HREC, an endothelial cell model of angiogenesis.[40] First, HREC viability was assessed by the 3-[4,5–dimethylthiazol-2-yl]-2,5-diphenyltetrazolium bromide (MTT) assay to verify the tolerability of the enantiomers, and different concentrations (1.0, 2.5, 5.0, 10.0, and 20.0 μM) of the compounds were tested for 24, 48, and 72 h. The IC50 values of (+)-1 and (−)-1 were calculated and compared to (±)-1 and its precursors (Table 3).
For cell viability assays, the 3-[4,5–dimethylthiazol-2-yl]-2,5-diphenyltetrazolium bromide (MTT assay, Chemicon, Temecula, CA) was used. The cells were seeded in 96-well plates at a density of 1.5 × 10^4 cells/well and were incubated overnight at 37 °C before the experiment. Afterward, the cells were treated for 24, 48, and 72 h in the presence of different concentrations (1.0, 2.5, 5.0, 10.0, 20.0 μM) of (±)-1, (+)-1, or (−)-1. After the treatments, the cells were incubated with MTT (5 mg/mL) for 3 h, and then 100 μL of dimethyl sulfoxide was added, and the absorbance was read in a plate reader (Synergy 2-BioTek) with a wavelength of 570 nm.

[6] = 24 h, read-out: IC50, MTT viability test on HREC
[7] = 24 h, read-out: pIC50 ± SE, MTT viability test on HREC (converted)
[8] = 48 h, read-out: IC50, MTT viability test on HREC
[9] = 48 h, read-out: pIC50 ± SE, MTT viability test on HREC (converted)
[10] = 72 h, read-out: IC50, MTT viability test on HREC
[11] = 72 h, read-out: pIC50 ± SE, MTT viability test on HREC (converted)

Structure (SMILES) | pIC50 ± SE, MTT viability test on HREC (HREC [1]; 24 h) | pIC50 ± SE, MTT viability test on HREC (HREC [1]; 48 h) | pIC50 ± SE, MTT viability test on HREC (HREC [1]; 72 h) | Kobs, enzymatic stability [2] | half-life at 3.8 µM [2] | effect of coincubation with PTZ on the compound's anti-VEGF-A activity on HREC proliferation [3] | effect on VEGF-A-mediated HREC proliferation [3] | effect on HREC proliferation under basal conditions [3] | reduction of cell migration and proliferation, times more than (±)-HP-mII [4] | reduction of cell migration and proliferation, times more than VPA [4] | Ki (σ1 receptor) | Ki (σ2 receptor) | IC50 (HREC [5]; [6]) | IC50 (HREC [5]; [7]) | IC50 (HREC [5]; [8]) | IC50 (HREC [5]; [9]) | IC50 (HREC [5]; [10]) | IC50 (HREC [5]; [11]) | effect of coincubation with AC927 on the compound's anti-VEGF-A activity on HREC proliferation [3]
CCCC(CCC)C(=O)OC(CCCN1CCC(O)(c2ccc(Cl)cc2)CC1)c1ccc(F)cc1 (racemic) [(±)-1] | 4.98 ± 0.02 | 4.95 ± 0.03 | 4.99 ± 0.04 | 0.011 ± 0.006 h^–1 | 60.5 ± 0.6 h | partially counteracted | completely prevented | did not induce significant changes | 20 times | 120 times |  |  |  |  |  |  |  |  | 
CCCC(CCC)C(=O)O[C@H](CCCN1CCC(O)(c2ccc(Cl)cc2)CC1)c1ccc(F)cc1 [(+)-1] |  |  |  | 0.012 ± 0.001 h^–1 | 58.2 ± 1.2 h | did not alter | completely prevented | did not induce significant changes |  |  | 0.064 ± 0.0082 µM | 0.074 ± 0.0089 µM | 9.8 µM | 9.77 µM | 6.4 µM | 6.46 µM | 4.4 µM | 4.47 µM | did not alter
CCCC(CCC)C(=O)O[C@@H](CCCN1CCC(O)(c2ccc(Cl)cc2)CC1)c1ccc(F)cc1 [(−)-1] |  |  |  | 0.01 ± 0.002 h^–1 | 70.3 ± 1.5 h | did not alter | completely prevented | did not induce significant changes |  |  | 0.016 ± 0.0017 µM | 0.056 ± 0.0064 µM | 10.1 µM | 10.7 µM | 9 µM | 9.12 µM | 6.8 µM | 6.92 µM | did not alter
